From patent publication US7388006B2, “Non-steroidal progesting” (Bayer Schering Pharma AG, priority 2002, dated 2008)

Key:
[1] = biological target: T1, glucocorticoid receptor (GR) (Homo sapiens, UniProt P04150); assay: Affinity for the glucocorticoid receptor; format: binding
T1 sequence (P04150 1-777): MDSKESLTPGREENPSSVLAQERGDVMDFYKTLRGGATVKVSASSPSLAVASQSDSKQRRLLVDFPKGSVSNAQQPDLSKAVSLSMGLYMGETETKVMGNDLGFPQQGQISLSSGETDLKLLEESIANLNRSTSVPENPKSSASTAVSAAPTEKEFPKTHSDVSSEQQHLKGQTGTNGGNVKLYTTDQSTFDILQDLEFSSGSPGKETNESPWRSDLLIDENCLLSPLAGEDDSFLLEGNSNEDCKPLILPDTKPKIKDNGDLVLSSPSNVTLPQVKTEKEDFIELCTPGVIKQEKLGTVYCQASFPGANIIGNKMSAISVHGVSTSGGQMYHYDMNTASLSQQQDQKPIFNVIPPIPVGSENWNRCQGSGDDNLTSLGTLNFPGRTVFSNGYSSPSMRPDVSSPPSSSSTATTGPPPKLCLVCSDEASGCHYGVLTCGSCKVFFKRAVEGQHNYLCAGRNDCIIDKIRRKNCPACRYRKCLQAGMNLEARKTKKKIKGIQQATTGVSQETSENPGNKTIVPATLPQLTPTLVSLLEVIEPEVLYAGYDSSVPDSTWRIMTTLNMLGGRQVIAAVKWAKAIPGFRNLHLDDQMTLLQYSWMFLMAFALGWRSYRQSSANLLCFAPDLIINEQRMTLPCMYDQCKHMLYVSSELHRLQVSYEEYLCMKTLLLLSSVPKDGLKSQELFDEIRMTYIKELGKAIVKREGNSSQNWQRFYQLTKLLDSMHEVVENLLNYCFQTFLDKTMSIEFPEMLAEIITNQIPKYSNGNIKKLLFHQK

androgen receptor (AR) = biological target: T2, androgen receptor (AR) (Homo sapiens, UniProt P10275); assay: Binding affinity for the androgen receptor
T2 sequence (P10275 1-920): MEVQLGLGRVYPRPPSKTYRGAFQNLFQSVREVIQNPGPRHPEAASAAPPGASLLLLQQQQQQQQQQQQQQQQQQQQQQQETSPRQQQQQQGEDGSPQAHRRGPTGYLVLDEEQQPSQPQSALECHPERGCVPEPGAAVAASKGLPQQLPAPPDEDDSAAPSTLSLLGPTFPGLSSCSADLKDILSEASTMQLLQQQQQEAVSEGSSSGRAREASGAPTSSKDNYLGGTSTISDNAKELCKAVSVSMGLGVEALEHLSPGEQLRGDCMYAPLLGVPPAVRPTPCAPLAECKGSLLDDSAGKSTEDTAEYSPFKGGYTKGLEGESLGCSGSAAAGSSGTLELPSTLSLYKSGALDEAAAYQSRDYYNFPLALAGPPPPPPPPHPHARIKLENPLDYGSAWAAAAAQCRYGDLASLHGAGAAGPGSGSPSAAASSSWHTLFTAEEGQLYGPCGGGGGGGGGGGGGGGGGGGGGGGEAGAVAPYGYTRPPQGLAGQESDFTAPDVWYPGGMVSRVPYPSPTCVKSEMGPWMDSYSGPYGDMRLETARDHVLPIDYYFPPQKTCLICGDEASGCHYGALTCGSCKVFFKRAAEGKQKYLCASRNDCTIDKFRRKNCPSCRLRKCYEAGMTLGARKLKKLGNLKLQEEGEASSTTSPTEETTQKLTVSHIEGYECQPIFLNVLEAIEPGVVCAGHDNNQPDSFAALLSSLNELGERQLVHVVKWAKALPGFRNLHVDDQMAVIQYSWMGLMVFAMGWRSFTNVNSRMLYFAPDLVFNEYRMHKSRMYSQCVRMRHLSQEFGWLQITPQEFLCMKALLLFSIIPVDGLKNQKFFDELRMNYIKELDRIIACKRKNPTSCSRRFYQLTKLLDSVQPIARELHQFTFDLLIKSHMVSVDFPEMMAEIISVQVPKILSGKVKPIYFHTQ

[2] = tested on: pregnancy in ovariectomized rats; assay: Pregnancy maintenance test in rat; format: in vivo; details: for Maintenance of pregnancy, factor compared to R5020: potency relative to R5020
From the text: In rats, castration induces termination of pregnancy. Progestins (combined with estrogens) are capable of maintaining pregnancy in castrated animals. However, the degree of pregnancy maintenance in castrated rats is optimal only in a defined dose range. Therefore, higher as well as lower doses generally induce a weaker effect. Accompanying treatment with defined doses of estrone (E1) increases the pregnancy maintaining effect of progestins.
Pregnant rats (Wistar Han, SPF) of 190 to 220 g (5 to 8 animals per dose) are ovariectomized on day 8 of pregnancy, 2 hours after the first substance administration. From day 8 to day 14, rats are daily treated with test progestin in combination with a standard dose of E1. One day later, animals are killed with carbon dioxide. For each animal, the number of living and dead fetuses is determined according to the heartbeat of the embryos. In case of empty uteri, the number of implantation sites is determined by means of staining with a 10% ammonium sulfide solution.
S.c. (subcutaneous) application: The test progestin is dissolved in benzyl benzoate/castor oil (1+4 v/v), and the daily dose is administered in a volume of 1 ml/kg body weight.
P.o. (peroral) application: The test progestin is suspended in a carrier liquid (85 mg Myrj^R in 100 ml 0.9% w/v NaCl solution), and the daily dose is administered in a volume of 2 ml/kg body weight.
I.p. (intraperitoneal) application: The test progestin is dissolved in propylene glycol and charged in miniature osmotic pumps (type 2001, 1.0 μl/h, 7 days), which are placed in the abdominal cavity of the rat.
The standard dose of estrone is 0.005 mg/kg body weight s.c. and is dissolved in benzyl benzoate/castor oil ([…]).
It is determined the pregnancy maintenance per animal [%], the pregnancy maintenance per dose (median of single values) and the EC50 (dose, at which pregnancy is maintained in 50% of the animals; 100% corresponds to control animals that are not ovariectomized). The results of the test are further discussed below in c).

O=C1OCc2cc(NC(=O)C(O)(CC3(c4cc(C(F)(F)F)ccc4F)CC3)C(F)(F)F)ccc21 (single isomer, unassigned; (+)) [((+)-1), (+)-5-{2-hydroxy-3-[1-(2-fluoro-5-trifluoromethylphenyl)-cyclopropyl]-2-trifluoromethyl-propionylamino}-phthalide]
Affinity for the glucocorticoid receptor (GR) [1]: very high affinity
Binding affinity for the androgen receptor (AR) (androgen receptor (AR)): moderate binding affinity
Androgenic activity in the pregnancy maintenance test ([2]; dose 100 times higher than the dose required for maintaining pregnancy): no androgenic activity
Pregnancy-maintaining activity EC50 value ([2]; rat): 12 µg/kg/day
Maintenance of pregnancy, factor compared to R5020 ([2]; rat): eight times as potent
Maintenance of pregnancy, factor compared to R5020 ([2]; rat, listed as ((+)−1)): 8
